According to patent US6521641B1, “Male anti-fertility agents” (Allergan, Inc., priority 1998, dated 2003):
Read-outs that look alike come from different tables or passages of the source.

Assays:
[1] = test system: Sprague-Dawley rats; test: Topical treatment of Sprague-Dawley rats with AGN 194310 cream for 28 days (Example 2); format: in vivo, rat
Experimental: Twenty-nine male and twenty-nine female Sprague-Dawley rats, approximately 7 weeks old were used for the study. Five rats/sex/group were designated as Main Study animals: (vehicle control, 0.025 mg/kg/day AGN 194310, and 0.25 mg/kg/day AGN 194310), and 7/sex/group designated as toxicokinetic satellite animals (0.025 mg/kg/day AGN 194310 and 0.25 mg/kglday AGN 194310). No “vehicle alone” control group was made for the toxicokinetic satellite animals. In this study there was no Recovery group.
The animals' backs were maintained shaven during the course of the study for application of the topical cream. The animals were treated daily with a topical formulation containing either AGN 194310 vehicle cream alone, 0.01% (w/w) AGN 194310 in the same vehicle cream, or 0.1% (w/w) AGN 194310 in the same vehicle cream. The vehicle cream consisted of a mixture of the following ingredients:
Daily dosages were calculated using the most recently obtained body weight, as shown below. The test or control creams were applied for 28 consecutive days to the shaved back of each animal in an area approximately equal to 35.5 cm^2. Application was made using a repeat pipettor, and the drug gently massaged into the skin. An Elizabethan collar was affixed around each animal's neck for a period of about 6 hours following treatment to prevent removal or systemic ingestion of the drug.
Blood was drawn at day 29 via cardiac puncture, as described in Example 1. The animals were first permitted to fast for approximately 16 hours prior to blood collection. Satellite animals were sacrificed on day 28.

[2] = test system: Sprague-Dawley rats; settings: for epididymis histology: high dose rats
Experimental: Ninety-eight male and ninety-eight female Sprague-Dawley (Crl:CD®(SD) IGS BR) Charles River, Hollister, Calif. 95023) rats, approximately 8 to 10 weeks old, were used for the study. The rats were divided into the following groups: non-treated control, vehicle control, 0.005 mg/kg/day, 0.015 mg/kg/day and 0.15 mg/kg/day AGN 194310. AGN 194310 has the following chemical structure: [drawing 18]
The AGN 194310 compound was provided as follows: the compound was dissolved in capric/caprylic triglyceride (CCT) at a variety of doses, either 0.001% (v/v) AGN 194310, 0.003% (v/v) AGN 194310, or 0.01% (v/v) AGN 194310.
One hundred ninety-six animals were distributed into thirteen groups as follows: Groups 1 through 5 were Main Study groups. Groups 6-9 were used for Toxicokinetic studies. Groups 10-13 were Main Study Recovery groups.
(§1) The drug was administered using a graduated syringe and a 20×3 inch animal feeding needle. Drug was given to each animal in a single dose per day.
(§2) Urine was collected from animals in the Main Study and Recovery groups during week 4 of the treatment period, and from Recovery group animals during week 4 of the recovery period. Urine was analyzed for: blood (hemoglobin and erythrocytes), bilirubin, color, glucose, ketones, leukocytes, microscopic evaluations of any urine sediment, […], pH, protein, specific gravity, transparency, and urobilinogen.
(§3) Animals were euthanized by inhalation of carbon dioxide. A complete necropsy was performed on all Main Study and Recovery group animals that died, or were euthanized due to moribund conditions, or were euthanized on scheduled sacrifice.
The following organs were weighed for necroscopized animals: adrenal glands, ovaries, kidneys, pituitary gland, liver, spleen, heart, testes, and brain. In the case of organ pairs, both organs were weighed together.
The following tissues and organs were isolated, trimmed if necessary, and preserved in 10% buffered formalin for histopathological evaluation: adrenal glands, mammary gland (with skin), aorta, ovaries, bone/bone marrow, pancreas, femur, pituitary gland, tibia, prostate gland, knee joint, salivary glands, parotid, brain, sub-maxillary, cervix sciatic nerve, diaphragm, seminal vesicle, epididymides, skeletal muscle (thigh), eyes, spinal chord (thoracic), spleen, esophagus, sternum, stomach, testes, duodenum, thymus, jejunum, thyroid gland with parathyroids, ileum, any tissues with lesion(s), cecum, tongue, colon, trachea, heart, bladder, kidneys, uterus, liver, ureter, lungs, urethra, lymph nodes (vaginal, cervical, mediastinal, mesenteric).
Target tissues and organs from the Vehicle (control) and high-dose groups were imbedded in paraffin, and tissue sections made. The sections were mounted and stained with hematoxylin and eosin using standard histological techniques; such histopathological evaluation was performed using techniques well known in the art.
In the Recovery dosage groups that were so evaluated, the selected tissues were prepared and evaluated as set forth above.

[3] = Excretion of the drug (separate experiment); format: in vivo; settings: within 2 weeks following treatment
[4] = test system: male Sprague Dawley rats; test: Reversibility of spermatogenic arrest, oral AGN 194310 for 4 weeks and recovery (Example 3); format: in vivo, rat
Experimental: Groups of male Sprague Dawley rats were treated orally for 4 weeks with either 0, 0.075, or 0.150 mg/kg/day of AGN 194310. Three to six animals from each group were sacrificed after 2 weeks of treatment, 6 animals from each group were sacrificed following 4 weeks of treatment and 6 animals from each group were sacrificed after 18-23 weeks of subsequent recovery after cessation of treatment. Histological and pathological examinations were done of the sacrificed animals, as in Example 1. Additionally, the animals in the 23 week recovery group were mated to normal, untreated female Sprague Dawley rats before being sacrificed to assess the reproductive function.

[5] = test system: Sprague-Dawley rats
Experimental: as §1
Animals were weighed on the first day of the study and once per week thereafter, and the body weights recorded. The body weights were used for the dosage calculations. For all the Main Study and Recovery animals, food (Purina Certified Rodent Chow, meal form) was placed into tared glass jars and left in the animal cages. Jars were removed and weighed once weekly. Food was added to the jars when necessary. Food consumption was not recorded for the animals used in the toxicokinetic satellite studies.
as §2, §3

[6] = male rats of the Recovery group, approximately one month without drug
[7] = oral 0.075 mg/kg, after 18 weeks of recovery
[8] = oral 0.075 mg/kg, after 23 weeks of recovery

SMILES: CCc1ccc(C2=CC(C)(C)Sc3ccc(C#Cc4ccc(C(=O)O)cc4)cc32)cc1 [AGN 194310, 4-[[4-(4-ethylphenyl)-2,2-dimethyl-(2H)-thiochromen-6-yl]-ethynyl]-benzoic acid]
- germ cells in the head of the epididymis ([1]; majority of males displaying spermatogenic arrest, topical): notable reduction of germ cells
- hematological differences versus control rats ([1]; male rats in all groups, topical): no statistically significant hematological differences
- treatment-related skin irritation ([1]; rats, topical skin application, 0.025 and 0.25 mg/kg/day, 28 days): did not result in any evidence of treatment-related skin irritation
- clinical observations, body weight, food consumption, gross pathology ([1]; rats, topical, 0.025 and 0.25 mg/kg/day, 28 days): No treatment-related clinical observations, differences in body weight, differences in food consumption, or in gross pathology were observed
- male rats with atrophy of the seminiferous tubules with concomitant spermatogenic arrest ([1]; topical 0.025 mg/kg/day, 28 days): 0 out of 5
- male rats with atrophy of the seminiferous tubules with concomitant spermatogenic arrest ([1]; topical 0.25 mg/kg/day, 28 days): 5 out of 5
- germinal cell layers lining the seminiferous tubules ([2]; high dose males 0.15 mg/kg/day, usual four or more layers in normal tubules): one to two layers of germinal cells
- epididymis histology ([2]; end of recovery): absence of stored epididymal sperm
- epididymis histology ([2]; end of treatment): increase in exfoliated cells
- reversibility of inhibition (focal increase in germ cell layers in individual tubules) [2, 6]: reversibility of such inhibition was also evident
- spermatogenesis (morphology) [2, 6]: continuing cessation of spermatogenesis
- testicular atrophy [2, 6]: testicular atrophy was evident
- spermatozoa counts in urine ([2]; male rats, oral 0.15 mg/kg/day, Recovery group, end of the recovery period): no spermatozoa counts
- testes size at postmortem examination ([2]; male rats, oral 0.15 mg/kg/day, end of the recovery period): apparent reduction of testes size in all five male rats
- testes weight ([2]; male rats, oral high dose 0.15 mg/kg/day, end of the treatment and recovery periods): reduction in testes weight
- spermatogenic arrest (testes histology) ([2]; male rats, oral intermediate dose 0.015 mg/kg/day, end of treatment): No such effect
- spermatogenic arrest (testes histology) ([2]; male rats, oral low dose 0.005 mg/kg/day, end of treatment): No such effect
- testes weight ([2]; male rats, oral, other dosage groups (0.005 and 0.015 mg/kg/day)): no statistically significant reduction of testes weight
- male rats with spermatogenic arrest (testes histology) ([2]; oral high dose 0.15 mg/kg/day, end of treatment): 10/10
- rats with inflammation or damage to stromal or vascular elements of the testis ([2]; rat, in vivo): None
- drug excreted [3]: 88%
- seminal vesicles ([4]; all the treated animals, oral 0.075 mg/kg): normal
- round spermatids in the epididymal caput and cauda ([4]; oral 0.075 mg/kg): No increase
- rats with evidence of spermatogenic arrest ([4]; oral 0.075 mg/kg, after 2 and 4 weeks of treatment): All rats
- weight of the testes and epididymides ([4]; oral 0.075 mg/kg, after 4 weeks of treatment): significantly reduced
- mature sperm in the epididymides [4, 7]: no mature sperm were seen
- spermatogenesis (histological analysis) [4, 7]: active spermatogenesis had resumed
- weight of the testes and epididymides [4, 7]: this weight decrease persisted to some degree
- fertility (mating to untreated females) [4, 8]: All tested animals were fertile
- rats completely recovered (normal testes weights, complete spermatogenesis cycle, mature sperm in epididymides) [4, 8]: 2 of the 3
- rats with spermatogenic arrest ([4]; oral 0.150 mg/kg, after 2 and 4 weeks of treatment): all rats
- rats completely recovered (active and complete spermatogenesis, normal testes weight) ([4]; oral 0.150 mg/kg, after 23 weeks of recovery): 4 out of 6
- spermatogenesis in the remaining animals ([4]; oral 0.150 mg/kg, after 23 weeks of recovery, remaining two animals): incomplete spermatogenesis no mature sperm seen in the epididymides histologically
- reproduction of the recovered rats ([4]; oral 0.150 mg/kg, after 23 weeks of recovery, the 4 recovered rats): able to reproduce normally
- reversibility of the effects of the drug ([4]; when administration is halted): fully reversible
- urinalysis parameters ([5]; rat, in vivo, po): no apparent treatment-related effects
- treatment-related deaths ([5]; rats, oral, 0.005-0.15 mg/kg/day, course of the study): No treatment-related deaths
- postmortem pathological examination ([5]; rats, oral, end of the treatment period): no noticeable differences
